Measured values reported in PubChem BioAssay (NCI).
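All cell lines were grown in 96-well plates and treated with compound for 48 hours. TGI: total growth inhibition.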

How the values were obtained:
Experiment in all cases: inhibition of tumour cell growth, NCI panel, 48 h
[1] = system: 786-0 renal
[2] = system: A498 renal
[3] = system: A549 NSCLC
[4] = system: ACHN renal
[5] = system: CAKI-1 renal
[6] = system: CCRF-CEM leukemia
[7] = system: COLO 205 colon
[8] = system: DLD-1 colon
[9] = system: DMS 114 small cell lung
[10] = system: DMS 273 small cell lung
[11] = system: EKVX NSCLC
[12] = system: HCC-2998 colon
[13] = system: HCT-116 colon
[14] = system: HCT-15 colon
[15] = system: HL-60(TB) leukemia
[16] = system: HOP-18 NSCLC
[17] = system: HOP-62 NSCLC
[18] = system: HOP-92 NSCLC
[19] = system: HT29 colon
[20] = system: IGROV1 ovarian
[21] = system: K-562 leukemia
[22] = system: KM12 colon
[23] = system: KM20L2 colon
[24] = system: LOX IMVI melanoma
[25] = system: LXFL 529 NSCLC
[26] = system: M14 melanoma
[27] = system: M19-MEL melanoma
[28] = system: MALME-3M melanoma
[29] = system: MOLT-4 leukemia
[30] = system: NCI-H226 lung
[31] = system: NCI-H23 lung
[32] = system: NCI-H460 lung
[33] = system: NCI-H522 lung
[34] = system: OVCAR-3 ovarian
[35] = system: OVCAR-4 ovarian
[36] = system: OVCAR-5 ovarian
[37] = system: OVCAR-8 ovarian
[38] = system: RPMI-8226 leukemia
[39] = system: RXF 393 renal
[40] = system: SF-268 CNS
[41] = system: SF-295 CNS
[42] = system: SF-539 CNS
[43] = system: SK-MEL-2 melanoma
[44] = system: SK-MEL-28 melanoma
[45] = system: SK-MEL-5 melanoma
[46] = system: SK-OV-3 ovarian
[47] = system: SN12C renal
[48] = system: SNB-19 CNS
[49] = system: SNB-75 CNS
[50] = system: SNB-78 CNS
[51] = system: SR leukemia
[52] = system: SW-620 colon
[53] = system: TK-10 renal
[54] = system: U251 CNS
[55] = system: UACC-257 melanoma
[56] = system: UACC-62 melanoma
[57] = system: UO-31 renal
[58] = system: XF 498 CNS

SMILES: CC(C)(C)OC(=O)NC(CO)c1cccc(OCc2ccccc2)c1 (stereo not given)
- TGI [1]: > 100 µM
- TGI [2]: > 100 µM
- TGI [3]: > 100 µM
- TGI [4]: > 100 µM
- TGI [5]: > 100 µM
- TGI [6]: > 100 µM
- TGI [7]: > 100 µM
- TGI [8]: > 100 µM
- TGI [9]: > 100 µM
- TGI [10]: > 100 µM
- TGI [11]: > 100 µM
- TGI [12]: > 100 µM
- TGI [13]: > 100 µM
- TGI [14]: > 100 µM
- TGI [15]: 43.8 µM
- TGI [16]: > 100 µM
- TGI [17]: > 100 µM
- TGI [18]: > 100 µM
- TGI [19]: > 100 µM
- TGI [20]: > 100 µM
- TGI [21]: > 100 µM
- TGI [22]: > 100 µM
- TGI [23]: > 100 µM
- TGI [24]: > 100 µM
- TGI [25]: > 100 µM
- TGI [26]: > 100 µM
- TGI [27]: > 100 µM
- TGI [28]: > 100 µM
- TGI [29]: > 100 µM
- TGI [30]: > 100 µM
- TGI [31]: > 100 µM
- TGI [32]: > 100 µM
- TGI [33]: > 100 µM
- TGI [34]: > 100 µM
- TGI [35]: > 100 µM
- TGI [36]: > 100 µM
- TGI [37]: > 100 µM
- TGI [38]: > 100 µM
- TGI [39]: > 100 µM
- TGI [40]: > 100 µM
- TGI [41]: > 100 µM
- TGI [42]: > 100 µM
- TGI [43]: > 100 µM
- TGI [44]: > 100 µM
- TGI [45]: > 100 µM
- TGI [46]: > 100 µM
- TGI [47]: > 100 µM
- TGI [48]: > 100 µM
- TGI [49]: > 100 µM
- TGI [50]: > 100 µM
- TGI [51]: > 100 µM
- TGI [52]: > 100 µM
- TGI [53]: > 100 µM
- TGI [54]: > 100 µM
- TGI [55]: 99.4 µM
- TGI [56]: > 100 µM
- TGI [57]: > 100 µM
- TGI [58]: > 100 µM

SMILES: CC(=O)c1cccc(NC(=O)C(=O)Nn2c(N)nnc2N)c1
- TGI [1]: > 100 µM
- TGI [2]: > 100 µM
- TGI [3]: > 100 µM
- TGI [4]: > 100 µM
- TGI [5]: > 100 µM
- TGI [6]: > 100 µM
- TGI [7]: > 100 µM
- TGI [8]: > 100 µM
- TGI [9]: > 100 µM
- TGI [10]: > 100 µM
- TGI [11]: > 100 µM
- TGI [12]: > 100 µM
- TGI [13]: > 100 µM
- TGI [14]: > 100 µM
- TGI [15]: > 100 µM
- TGI [16]: > 100 µM
- TGI [17]: > 100 µM
- TGI [18]: > 100 µM
- TGI [19]: > 100 µM
- TGI [20]: > 100 µM
- TGI [21]: > 100 µM
- TGI [22]: > 100 µM
- TGI [23]: > 100 µM
- TGI [24]: > 100 µM
- TGI [25]: > 100 µM
- TGI [26]: > 100 µM
- TGI [27]: > 100 µM
- TGI [28]: > 100 µM
- TGI [29]: > 100 µM
- TGI [30]: > 100 µM
- TGI [31]: > 100 µM
- TGI [32]: > 100 µM
- TGI [33]: > 100 µM
- TGI [35]: > 100 µM
- TGI [36]: > 100 µM
- TGI [37]: > 100 µM
- TGI [38]: > 100 µM
- TGI [39]: > 100 µM
- TGI [40]: > 100 µM
- TGI [41]: > 100 µM
- TGI [42]: > 100 µM
- TGI [43]: > 100 µM
- TGI [44]: > 100 µM
- TGI [45]: > 100 µM
- TGI [46]: > 100 µM
- TGI [47]: > 100 µM
- TGI [48]: > 100 µM
- TGI [49]: > 100 µM
- TGI [50]: > 100 µM
- TGI [51]: > 100 µM
- TGI [52]: > 100 µM
- TGI [53]: > 100 µM
- TGI [54]: > 100 µM
- TGI [55]: > 100 µM
- TGI [56]: > 100 µM
- TGI [57]: > 100 µM
- TGI [58]: > 100 µM
